In patent US20130266636A1, “METHODS FOR BLOCKING CELL PROLIFERATION AND TREATING DISEASES AND CONDITIONS RESPONSIVE TO CELL GROWTH INHIBITION” (THE REGENTS OF THE UNIVERSITY OF CALIFORNIA, priority 2010, published 2013):
“Also recorded” adds a separate entry of the source.

Columns and labels:
[1] = tested on: human breast (MDA-MB-231) carcinoma cell line; test: Cell viability assay in MDA-MB-231 cells; type: cell-based; conditions: for cell viability / potency relative to KG5 (cell viability EC50s): MDA-MB-231; for EC50: MDA-MB-231 breast cancer cell viability assays
[2] = tested on: human lung (A549) carcinoma cell line; test: Cell viability assay in A549 cells; type: cell-based; conditions: for cell viability / potency relative to KG5 (cell viability EC50s): A549; for EC50: A549 lung cancer cells
[3] = tested on: human breast (T47D) carcinoma cell line; test: Cell viability assay in T47D cells; type: cell-based; conditions: for cell viability / potency relative to KG5 (cell viability EC50s): T47D; for EC50: T47D breast cancer cells
A549 cells = test: Cell proliferation assay in A549 cells; type: cell-based, human
XPA-1 cells = test: Cell cycle analysis, bright field and confocal microscopy of XPA-1 cells; type: cell-based, human; conditions: XPA-1 cells, 20 hours
Protocol: FIG. 38. […] FIG. 38(a) Bright field images (scale bar, 20 μm), cell cycle analysis and confocal microscopy images (scale bar, 10 μm, laminB in red and DNA in blue) of XPA-1 cells treated for 20 hours with the allosteric RAF inhibitor KG5, the ATP-competitive inhibitor Sorafenib, the MEK inhibitor PD0325901, the control compound KG1 at 5 μM or paclitaxel at 200 nM. Cells were harvested after 20 hours and the cell cycle stage was determined by flow cytometry and confocal microscopy. White arrows indicate cells arrested at pro-metaphase. Scale bars, 10 μm. FIG. 38(b) Representative confocal microscopy images of untreated XPA-1 tumor cells undergoing mitosis (left image) and XPA-1 cell arrested with KG5 at pro-metaphase (right image). Cells were stained with α-tubulin in red and DNA in blue. Scale bar, 10 μm. FIG. 38(c) XPA-1 cells transfected with a vector control or active MEK were treated with 1 μM KG5 for 20 hours or left untreated and the G2/M population was quantified by flow cytometry. Error bars represent s.d. (n=3); * two tailed p value=0.00063 using a Mann Whitney U test. FIG. 38(d) Immunoblot analysis of XPA-1 cells untreated or treated with 1 μM KG5 for 18 hours. Data are representative of four independent experiments. […] Error bars represent s.d. (n=3); * two tailed p value=0.010 using a Mann Whitney U test. Inset, Immunoblot analysis of HCT-116 cells untreated or treated with 1 μM KG5 for 18 hours.
FIG. 39. […] FIG. 39 graphically illustrates cell cycle analysis of XPA-1 cells treated with the allosteric RAF inhibitor KG5, the microtubule stabilizer paclitaxel, or the ATP-competitive RAF inhibitors sorafenib, L-779450, GW 5074, and ZM-336372. Cells were harvested after 6, 18, 24, 48 and 72 hours and the percentages of cells in G2/M and SubG1 were determined by flow cytometry. Data are representative of three independent experiments.
Cell cycle analysis was performed by flow cytometry following propidium iodide staining. Briefly, cells were harvested, fixed with ice cold methanol, treated for 45 min with 10 μg/ml of RNase and resuspended in PBS containing 10 μg/ml of PI, and analyzed by flow cytometry. Cell cycle analysis was performed in cells treated for 18 hours with the allosteric RAF inhibitor KG5, the ATP-competitive RAF inhibitors: sorafenib, L-779450, GW5074, and ZM-336372, the MEK inhibitor (PD0325901) at […] concentration or paclitaxel at 100 nM.

CRAF = CRAF (Homo sapiens, UniProt P04049); test: CRAF localization to the mitotic spindle, confocal microscopy of XPA-1 cells; type: cell-based; design: total CRAF and total MEK of lysates from XPA-1 cells treated with PD0325901, Sorafenib, L-779450, PLX4720, KG5 or KG1; endogenous in cells; host or cells: XPA-1
Chain of CRAF (P04049 whole entry): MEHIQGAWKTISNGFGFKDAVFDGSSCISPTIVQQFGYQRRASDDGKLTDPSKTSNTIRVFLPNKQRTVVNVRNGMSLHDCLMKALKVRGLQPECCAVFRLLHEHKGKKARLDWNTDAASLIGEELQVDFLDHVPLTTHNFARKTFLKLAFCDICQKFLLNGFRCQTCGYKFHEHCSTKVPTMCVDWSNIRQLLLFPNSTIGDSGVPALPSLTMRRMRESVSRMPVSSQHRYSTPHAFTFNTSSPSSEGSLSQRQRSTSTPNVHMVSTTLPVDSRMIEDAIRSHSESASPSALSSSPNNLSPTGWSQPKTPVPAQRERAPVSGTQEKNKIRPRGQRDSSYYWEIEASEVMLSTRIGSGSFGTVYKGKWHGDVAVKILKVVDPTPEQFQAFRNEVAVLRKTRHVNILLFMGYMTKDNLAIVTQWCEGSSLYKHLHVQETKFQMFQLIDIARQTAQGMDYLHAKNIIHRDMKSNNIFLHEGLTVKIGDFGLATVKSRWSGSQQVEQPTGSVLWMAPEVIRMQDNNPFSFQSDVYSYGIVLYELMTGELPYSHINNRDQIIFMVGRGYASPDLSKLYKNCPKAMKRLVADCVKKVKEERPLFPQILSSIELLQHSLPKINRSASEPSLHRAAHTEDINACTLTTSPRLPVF
Excerpt: FIG. 35. […] Data are representative of three independent experiments. FIG. 35 (b) Confocal microscopy images of human pancreatic XPA-1 and glioblastoma U251 cells during mitosis, stained for phospho-5338 CRAF (in green), α-tubulin (in red) and DNA (TOPRO-3™ in blue). Scale bar, 10 μm. White arrows indicate localization of phospho-S338 CRAF at the mitotic spindle. FIG. 35 (c) Immunoblot analysis of γ-tubulin immunoprecipitates from human colon carcinoma HCT-116 cells asynchronized and synchronized at pro-metaphase. Data are representative of three independent experiments. FIG. 35(d) Immunohistochemical staining of phospho-S338 CRAF in tumor biopsies from breast cancer patients. Scale bar, 10 μm. FIG. 35(e) Confocal microscopy images of XPA-1 cells treated with KG5, sorafenib, ZM336372, L779450 or paclitaxel and stained for CRAF (in green), γ-tubulin (in red) and DNA (TOPRO-3™ in blue). Scale bar, 10 μm. White arrows indicate localization of CRAF at the spindle pole. White circle indicates the absence of CRAF at the spindle pole.
Cells attached to cover-slips were fixed with cold methanol and permeabilized in PBS containing 0.1% triton for two minutes and blocked for 60 minutes, at room temperature with 2% BSA in PBS. Cells were stained with antibodies to CRAF (Abcam), phospho-serine 338 CRAF (SantaCruz), phospho-serine 338 CRAF (Thermo Scientific), a tubulin (Calbiochem), γ tubulin (Abcam), laminB (SantaCruz), Plk1 (Abcam), phospho-T210 Plk1 (Abcam), or phospho-T288 Aurora A (cell signaling). All primary antibodies were used at 1:100 dilution, for two hours at room temperature. After washing several times with PBS, cells were stained for two hours at room temperature, with secondary antibody specific for mouse, rabbit or goat (Invitrogen), as appropriate, diluted 1:300 and co-incubated with the DNA dye TOPRO-3™ (1:500) (Invitrogen). Samples were mounted in VECTASHIELD™ hard-set mounting media (Vector Laboratories) and imaged on a Nikon ECLIPSE C1™ confocal microscope with a 1.4 NA 60× oil-immersion lens, using minimum pinhole (30 μm). Images were captured using EZ-C1-3.50 imaging software.

CSc1nc(N)cc(Oc2ccc(-c3nnc(Nc4cc(C)ccc4C)[nH]3)cc2)n1 [H3-3, 6-(4-{5-[(2,5-dimethylphenyl)amino]-4H-1,2,4-triazol-3-yl}phenoxy)-2-(methylsulfanyl)pyrimidin-4-amine]
cell viability [1]: decrease cell viability | potency relative to KG5 (cell viability EC50s) [1]: more potent than KG5 | EC50 [1]: approach picomolar (pM) EC50s | cell viability [2]: decrease cell viability | potency relative to KG5 (cell viability EC50s) [2]: more potent than KG5 | EC50 [2]: approach picomolar (pM) EC50s | cell viability [3]: decrease cell viability | potency relative to KG5 (cell viability EC50s) [3]: more potent than KG5 | EC50 [3]: approach picomolar (pM) EC50s

CSc1nc(N)cc(Oc2ccc(-c3nnc(Nc4cccc5c4CCCC5)[nH]3)cc2)n1 [H3-21, 2-(methylsulfanyl)-6-{4-[5-(5,6,7,8-tetrahydronaphthalen-1-ylamino)-4H-1,2,4-triazol-3-yl]phenoxy}pyrimidin-4-amine]
cell viability [1]: decrease cell viability | potency relative to KG5 (cell viability EC50s) [1]: more potent than KG5 | EC50 [1]: approach picomolar (pM) EC50s | cell viability [2]: decrease cell viability | potency relative to KG5 (cell viability EC50s) [2]: more potent than KG5 | EC50 [2]: approach picomolar (pM) EC50s | cell viability [3]: decrease cell viability | potency relative to KG5 (cell viability EC50s) [3]: more potent than KG5 | EC50 [3]: approach picomolar (pM) EC50s

CCCS(=O)(=O)Nc1ccc(F)c(C(=O)c2c[nH]c3ncc(-c4ccc(Cl)cc4)cc23)c1F [PLX4032]
cell proliferation (A549 cells): induce proliferation

CSc1nc(N)cc(Oc2ccc(-c3nnc(Nc4ccc(C)c(C)c4)[nH]3)cc2)n1 [H3-9, 6-(4-{5-[(3,4-dimethylphenyl)amino]-4H-1,2,4-triazol-3-yl}phenoxy)-2-(methylsulfanyl)pyrimidin-4-amine]
cell viability [1]: decrease cell viability | potency relative to KG5 (cell viability EC50s) [1]: more potent than KG5 | EC50 [1]: approach picomolar (pM) EC50s

CSc1nc(N)cc(Oc2ccc(-c3nnc(Nc4cccc(C)c4C)[nH]3)cc2)n1 [H3-11, 6-(4-{5-[(2,3-dimethylphenyl)amino]-4H-1,2,4-triazol-3-yl}phenoxy)-2-(methylsulfanyl)pyrimidin-4-amine]
cell viability [1]: decrease cell viability | potency relative to KG5 (cell viability EC50s) [1]: more potent than KG5 | EC50 [1]: approach picomolar (pM) EC50s

CNC(=O)c1cc(Oc2ccc(NC(=O)Nc3ccc(Cl)c(C(F)(F)F)c3)cc2)ccn1 [Sorafenib]
arrest at pro-metaphase (confocal microscopy) (XPA-1 cells): does not arrest cells at pro-metaphase | CRAF localization to the mitotic spindle (CRAF): does not prevent CRAF localization to the mitotic spindle or midbodies | cell proliferation (A549 cells): induce proliferation

CC(=O)O[C@H]1C(=O)[C@@]2(C)[C@H]([C@H](OC(=O)c3ccccc3)[C@]3(O)C[C@H](OC(=O)[C@H](O)[C@@H](NC(=O)c4ccccc4)c4ccccc4)C(C)=C1C3(C)C)[C@]1(OC(C)=O)CO[C@@H]1C[C@@H]2O [paclitaxel]
arrest at pro-metaphase (confocal microscopy) (XPA-1 cells): arrests cells at pro-metaphase | CRAF localization to the mitotic spindle (CRAF): does not affect CRAF localization to the mitotic spindle; also recorded: CRAF remained localized to the mitotic spindle

CCOc1nc(N)cc(Oc2ccc(-c3nnc(Nc4cccc(C(F)(F)F)c4)[nH]3)cc2)n1 [K1-72, 2-ethoxy-6-[4-(5-{[3-(trifluoromethyl)phenyl]amino}-4H-1,2,4-triazol-3-yl)phenoxy]pyrimidin-4-amine]
cell viability [1]: decrease cell viability | potency relative to KG5 (cell viability EC50s) [1]: more potent than KG5 | EC50 [1]: approach picomolar (pM) EC50s

CSc1nc(N)cc(Oc2ccc(-c3nnc(Nc4cc(C)cc(C)c4)[nH]3)cc2)n1 [H3-7, 6-(4-{5-[(3,5-dimethylphenyl)amino]-4H-1,2,4-triazol-3-yl}phenoxy)-2-(methylsulfanyl)pyrimidin-4-amine]
cell viability [1]: decrease cell viability | potency relative to KG5 (cell viability EC50s) [1]: more potent than KG5 | EC50 [1]: approach picomolar (pM) EC50s | cell viability [2]: decrease cell viability | potency relative to KG5 (cell viability EC50s) [2]: more potent than KG5 | EC50 [2]: approach picomolar (pM) EC50s | cell viability [3]: decrease cell viability | potency relative to KG5 (cell viability EC50s) [3]: more potent than KG5 | EC50 [3]: approach picomolar (pM) EC50s
